Laboratory results taken from the supplement of paper PMC13380429.
± gives the standard deviation of the averaged measurements.

Tests used:
Settings in all cases: 72 h
HepG2 [1] = experiment: cell viability relative to DMSO; higher = less toxic
Vero E6 [2] = experiment: as above
U2OS [3] = experiment: as above
Calu-3 [4] = experiment: as above
Caco-2 [5] = experiment: as above
HepG2 [6] = experiment: relative viability EC50 (midpoint between 100% and the lowest measured viability); higher = less toxic
Vero E6 [7] = experiment: as above
U2OS [8] = experiment: as above
Calu-3 [9] = experiment: as above
Caco-2 [10] = experiment: as above
HepG2 [11] = experiment: drug sensitivity score (DSS) for viability; higher = more toxic; extreme values may be limits of the assay
Vero E6 [12] = experiment: as above
U2OS [13] = experiment: as above
Calu-3 [14] = experiment: as above
Caco-2 [15] = experiment: as above

| SMILES | cell viability (HepG2 [1]; 1 nM) | cell viability (HepG2 [1]; 10 nM) | cell viability (HepG2 [1]; 100 nM) | cell viability (HepG2 [1]; 1000 nM) | cell viability (HepG2 [1]; 10000 nM) | cell viability (Vero E6 [2]; 1 nM) | cell viability (Vero E6 [2]; 10 nM) | cell viability (Vero E6 [2]; 100 nM) | cell viability (Vero E6 [2]; 1000 nM) | cell viability (Vero E6 [2]; 10000 nM) | cell viability (U2OS [3]; 1 nM) | cell viability (U2OS [3]; 10 nM) | cell viability (U2OS [3]; 100 nM) | cell viability (U2OS [3]; 1000 nM) | cell viability (U2OS [3]; 10000 nM) | cell viability (Calu-3 [4]; 1 nM) | cell viability (Calu-3 [4]; 10 nM) | cell viability (Calu-3 [4]; 100 nM) | cell viability (Calu-3 [4]; 1000 nM) | cell viability (Calu-3 [4]; 10000 nM) | cell viability (Caco-2 [5]; 1 nM) | cell viability (Caco-2 [5]; 10 nM) | cell viability (Caco-2 [5]; 100 nM) | cell viability (Caco-2 [5]; 1000 nM) | cell viability (Caco-2 [5]; 10000 nM) | relative viability EC50 (HepG2 [6]) | relative viability EC50 (Vero E6 [7]) | relative viability EC50 (U2OS [8]) | relative viability EC50 (Calu-3 [9]) | relative viability EC50 (Caco-2 [10]) | drug sensitivity score (HepG2 [11]) | drug sensitivity score (Vero E6 [12]) | drug sensitivity score (U2OS [13]) | drug sensitivity score (Calu-3 [14]) | drug sensitivity score (Caco-2 [15]) |
| --- | --- | --- | --- | --- | --- | --- | --- | --- | --- | --- | --- | --- | --- | --- | --- | --- | --- | --- | --- | --- | --- | --- | --- | --- | --- | --- | --- | --- | --- | --- | --- | --- | --- | --- | --- |
| CC(C)[N+](C)(CCC(C(N)=O)(c1ccccc1)c1ccccc1)C(C)C [isopropamide-iodide] | 98.1% | 108% | 93.5% | 100% | 102% | 102% | 104% | 101% | 99.4% | 98.6% | 104% | 99.8% | 103% | 98.4% | 100% | 97.2% | 90.1% | 96.2% | 94.1% | 87.1% | 102% | 94.2% | 98.1% | 93.9% | 101% | > 10 µM | > 10 µM | > 10 µM | > 10 µM | > 10 µM | 0 | 0 | 0 | 0 | 0 |
| O[C@@H]1CO[C@H]2[C@@H]1OC[C@@H]2O [isosorbide] | 93.4% | 92.5% | 106% | 99.6% | 105% | 96.7% | 100% | 97.5% | 92.9% | 99.8% | 96.8% | 98.9% | 95% | 98.8% | 94.4% | 97.3% | 97.6% | 106% | 101% | 111% | 94.8% | 93.7% | 91.4% | 102% | 99.8% | > 10 µM | > 10 µM | > 10 µM | > 10 µM | > 10 µM | 0 | 0 | 0 | 0 | 0 |
| O=C(O)c1ccccc1C(=O)Nc1ccc(-c2ccccc2)cc1 [kartogenin] | 98.4% | 98.4% | 92.7% | 97.3% | 106% | 103% | 99% | 105% | 97.7% | 98.1% | 103% | 104% | 100% | 98.6% | 100% | 98.2% | 101% | 105% | 102% | 103% | 99.2% | 90.6% | 89.7% | 94.2% | 93.7% | > 10 µM | > 10 µM | > 10 µM | > 10 µM | > 10 µM | 0 | 0 | 0 | 0 | 0 |
| O=C(c1ccccc1)c1ccc2n1CCC2C(=O)O (stereo not given) [ketorolac] | 102% | 107% | 113% | 97.7% | 87.2% | 102% | 104% | 108% | 105% | 96.1% | 99.5% | 105% | 104% | 96.6% | 92.9% | 95.7% | 109% | 110% | 99.5% | 104% | 103% | 123% | 110% | 98.3% | 91.8% | > 10 µM | > 10 µM | > 10 µM | > 10 µM | > 10 µM | 0.2 | 0 | 0 | 0 | 0 |
| CC(=O)NCCc1c(Cc2ccccc2)[nH]c2ccccc12 [luzindole] | 103% | 99.9% | 104% | 95.5% | 110% | 95.9% | 99% | 95.1% | 94.6% | 97.4% | 102% | 103% | 100% | 104% | 96.9% | 98.6% | 102% | 105% | 104% | 96.2% | 97.4% | 105% | 106% | 103% | 102% | > 10 µM | > 10 µM | > 10 µM | > 10 µM | > 10 µM | 0 | 0 | 0 | 0 | 0 |
| Cc1cccc(C(C)c2c[nH]cn2)c1C (stereo not given) [medetomidine] | 92.5 ± 2.5% | 106 ± 1.3% | 101 ± 2.7% | 102 ± 9.6% | 111.4 ± 0.14% | 95.3 ± 0.57% | 97.5 ± 0.99% | 92.5 ± 3.8% | 99.75 ± 0.071% | 101 ± 3.2% | 100 ± 2.2% | 96.1 ± 0.71% | 102 ± 5.5% | 94.5 ± 0.42% | 97.6 ± 6.1% | 104 ± 2.5% | 98.5 ± 14% | 103 ± 2.5% | 105 ± 11% | 95.2 ± 0.57% | 97.85 ± 0.35% | 88 ± 1.9% | 99.2 ± 5.2% | 100 ± 3.1% | 99.1 ± 1.6% | > 10 µM | > 10 µM | > 10 µM | > 10 µM | > 10 µM | 0 | 0 | 0 | 0 | 0 |
| CCCNC(C)(C)COC(=O)c1ccccc1 [meprylcaine] | 86.3% | 100% | 94% | 95.6% | 91.9% | 96% | 103% | 91.8% | 95.2% | 103% | 98.6% | 98.2% | 103% | 97.7% | 99.5% | 102% | 112% | 105% | 99.9% | 94.5% | 98.1% | 104% | 94.3% | 106% | 96.6% | > 10 µM | > 10 µM | > 10 µM | > 10 µM | > 10 µM | 0 | 0 | 0 | 0 | 0 |
| CN1C[C@H](CNC(=O)OCc2ccccc2)C[C@@H]2c3cccc4c3c(cn4C)C[C@H]21 [metergoline] | 101% | 98.5% | 100% | 96.9% | 84.6% | 105% | 105% | 95.2% | 94% | 84.2% | 95.4% | 99.1% | 104% | 96.4% | 95.8% | 101% | 92.2% | 101% | 89.8% | 104% | 116% | 91.3% | 101% | 88.1% | 99.6% | > 10 µM | > 10 µM | > 10 µM | > 10 µM | > 10 µM | 0.6 | 0.4 | 0 | 0 | 0 |
| CC(=O)Nc1c(I)c(C(=O)O)c(I)c(N(C)C(C)=O)c1I [metrizoic-acid] | 107% | 104% | 105% | 96.6% | 110% | 104% | 98.6% | 105% | 98.8% | 101% | 97.6% | 105% | 95.9% | 105% | 96.5% | 96.6% | 103% | 98.3% | 94.9% | 107% | 92% | 102% | 94% | 97.3% | 92.8% | > 10 µM | > 10 µM | > 10 µM | > 10 µM | > 10 µM | 0 | 0 | 0 | 0 | 0 |
| Cc1cc(-c2ccccc2)nnc1NCCN1CCOCC1 [minaprine] | 96.3% | 99.6% | 96.8% | 94.2% | 93.6% | 101% | 98.1% | 98.8% | 100% | 94.5% | 104% | 97.8% | 99.6% | 98.9% | 103% | 102% | 96.8% | 99.1% | 89.4% | 91.7% | 92% | 96% | 98.4% | 96.1% | 89.3% | > 10 µM | > 10 µM | > 10 µM | > 10 µM | > 10 µM | 0 | 0 | 0 | 0.2 | 0 |
| Nc1cccc2c(=O)[nH][nH]c(=O)c12 [monosodium-alpha-luminol] | 95.9% | 89.7% | 104% | 89.8% | 113% | 102% | 92.7% | 96.1% | 95.2% | 106% | 98% | 102% | 95.4% | 102% | 103% | 98.5% | 100% | 97.4% | 105% | 105% | 93% | 88.6% | 90.3% | 92.7% | 97.7% | > 10 µM | > 10 µM | > 10 µM | > 10 µM | > 10 µM | 0 | 0 | 0 | 0 | 0 |
| CO[C@@]1(NC(=O)C(C(=O)O)c2ccc(O)cc2)C(=O)N2C(C(=O)O)=C(CSc3nnnn3C)CO[C@@H]21 (stereo not given in full) [moxalactam] | 102% | 95.2% | 117% | 84.9% | 117% | 98.1% | 97.5% | 98.1% | 92.7% | 100% | 94.8% | 98.2% | 96.1% | 103% | 104% | 93.2% | 100% | 92.1% | 105% | 98% | 92.6% | 99.7% | 96.7% | 95.9% | 105% | > 10 µM | > 10 µM | > 10 µM | > 10 µM | > 10 µM | 0 | 0 | 0 | 0 | 0 |
| COc1ccc2cc(CCC(C)=O)ccc2c1 [nabumetone] | 99.8% | 97.8% | 105% | 90.8% | 95.8% | 101% | 104% | 101% | 93.8% | 88.1% | 98.5% | 95.2% | 99.9% | 93.3% | 101% | 98.2% | 90.6% | 86.7% | 106% | 95.4% | 111% | 90.4% | 89.2% | 97.4% | 94.5% | > 10 µM | > 10 µM | > 10 µM | > 10 µM | > 10 µM | 0 | 0.3 | 0 | 0 | 0 |
| COc1ccc(-c2nc(-c3ccc(-c4cccc(Cl)c4)o3)[nH]c2-c2ccc(OC)cc2)cc1 [neurodazine] | 112% | 99.5% | 96.3% | 98.2% | 86.2% | 109% | 103% | 98.4% | 102% | 96.6% | 100% | 99% | 105% | 96.3% | 96.1% | 91.4% | 96% | 97.2% | 79.6% | 89.6% | 106% | 94.9% | 109% | 103% | 84.4% | > 10 µM | > 10 µM | > 10 µM | > 10 µM | > 10 µM | 0.3 | 0 | 0 | 0.6 | 0.2 |
